What was measured:
[1] = target: JMJD2C (Homo sapiens (Human), UniProt Q9H3R0); assay: In vitro enzyme inhibition assay for JMJD2C activity (TR-FRET); type: biochemical; details: Table 5; one class given per A and B pair
Protocol: This assay determines the ability of a test compound to inhibit JMJD2C demethylase activity. Baculovirus expressed JMJD2C (GenBank Accession #BC143571, AA 2-372) was purchased from BPS Bioscience (Cat#50105).
The ability of test compounds to inhibit the activity of JMJD2C was determined in 384-well plate format under the following reaction conditions: 0.3 nM JMJD2C, 300 nM H3K9me3-biotin labeled peptide (Anaspec cat #64360), 2 μM alpha-ketoglutaric acid in assay buffer of 50 mM HEPES, pH7.3, 0.005% Brij35, 0.5 mM TCEP, 0.2 mg/ml BSA, 50 μM sodium L-ascorbate, and 2 μM ammonium iron(II) sulfate. Reaction product was determined quantitatively by TR-FRET after the addition of detection reagent Phycolink Streptavidin-allophycocyanin (Prozyme) and Europium-anti-di-methylated histone H3 lysine 9 (H3K9me2) antibody (PerkinElmer) in the presence of 5 mM EDTA in LANCE detection buffer (PerkinElmer) at a final concentration of 50 nM and 1 nM, respectively.
(§1) The assay reaction was initiated by the following: 2 μl of the mixture of 900 nM H3K9me3-biotin labeled peptide and 6 μM alpha-ketoglutaric acid with 2 μl of 11-point serial diluted inhibitor in 3% DMSO were added to each well of the plate, followed by the addition of 2 μl of 0.9 nM JMJD2C to initiate the reaction. The reaction mixture was incubated at RT for 30 min, and terminated by the addition of 6 μl of 5 mM EDTA in LANCE detection buffer containing 100 nM Phycolink Streptavidin-allophycocyanin and 2 nM Europium-anti-H3K9me2 antibody. Plates were read by EnVisionMultilabel Reader in TR-FRET mode (excitation at 320 nm, emission at 615 nm and 665 nm) after 1 hr incubation at RT. A ratio was calculated (665/615) for each well and fitted to determine inhibition constant (IC50).

[2] = system: esophageal squamous cell carcinoma KYSE-150 cells; assay: Cellular IC50 in KYSE-150 cells; type: cell-based; details: Homo sapiens, one class given per A and B pair
Text: Table 7 provides IC50 values of various compounds disclosed herein, tested in cellular human esophageal squamous cell carcinoma KYSE-150 cells: […]

[3] = target: Jarid1B (Homo sapiens (Human), UniProt Q9UGL1); assay: In vitro enzyme inhibition assay for Jarid1B activity (TR-FRET); type: biochemical; details: Table 5; one class given per A and B pair
Sequence of Jarid1B (Q9UGL1 whole entry, species assumed): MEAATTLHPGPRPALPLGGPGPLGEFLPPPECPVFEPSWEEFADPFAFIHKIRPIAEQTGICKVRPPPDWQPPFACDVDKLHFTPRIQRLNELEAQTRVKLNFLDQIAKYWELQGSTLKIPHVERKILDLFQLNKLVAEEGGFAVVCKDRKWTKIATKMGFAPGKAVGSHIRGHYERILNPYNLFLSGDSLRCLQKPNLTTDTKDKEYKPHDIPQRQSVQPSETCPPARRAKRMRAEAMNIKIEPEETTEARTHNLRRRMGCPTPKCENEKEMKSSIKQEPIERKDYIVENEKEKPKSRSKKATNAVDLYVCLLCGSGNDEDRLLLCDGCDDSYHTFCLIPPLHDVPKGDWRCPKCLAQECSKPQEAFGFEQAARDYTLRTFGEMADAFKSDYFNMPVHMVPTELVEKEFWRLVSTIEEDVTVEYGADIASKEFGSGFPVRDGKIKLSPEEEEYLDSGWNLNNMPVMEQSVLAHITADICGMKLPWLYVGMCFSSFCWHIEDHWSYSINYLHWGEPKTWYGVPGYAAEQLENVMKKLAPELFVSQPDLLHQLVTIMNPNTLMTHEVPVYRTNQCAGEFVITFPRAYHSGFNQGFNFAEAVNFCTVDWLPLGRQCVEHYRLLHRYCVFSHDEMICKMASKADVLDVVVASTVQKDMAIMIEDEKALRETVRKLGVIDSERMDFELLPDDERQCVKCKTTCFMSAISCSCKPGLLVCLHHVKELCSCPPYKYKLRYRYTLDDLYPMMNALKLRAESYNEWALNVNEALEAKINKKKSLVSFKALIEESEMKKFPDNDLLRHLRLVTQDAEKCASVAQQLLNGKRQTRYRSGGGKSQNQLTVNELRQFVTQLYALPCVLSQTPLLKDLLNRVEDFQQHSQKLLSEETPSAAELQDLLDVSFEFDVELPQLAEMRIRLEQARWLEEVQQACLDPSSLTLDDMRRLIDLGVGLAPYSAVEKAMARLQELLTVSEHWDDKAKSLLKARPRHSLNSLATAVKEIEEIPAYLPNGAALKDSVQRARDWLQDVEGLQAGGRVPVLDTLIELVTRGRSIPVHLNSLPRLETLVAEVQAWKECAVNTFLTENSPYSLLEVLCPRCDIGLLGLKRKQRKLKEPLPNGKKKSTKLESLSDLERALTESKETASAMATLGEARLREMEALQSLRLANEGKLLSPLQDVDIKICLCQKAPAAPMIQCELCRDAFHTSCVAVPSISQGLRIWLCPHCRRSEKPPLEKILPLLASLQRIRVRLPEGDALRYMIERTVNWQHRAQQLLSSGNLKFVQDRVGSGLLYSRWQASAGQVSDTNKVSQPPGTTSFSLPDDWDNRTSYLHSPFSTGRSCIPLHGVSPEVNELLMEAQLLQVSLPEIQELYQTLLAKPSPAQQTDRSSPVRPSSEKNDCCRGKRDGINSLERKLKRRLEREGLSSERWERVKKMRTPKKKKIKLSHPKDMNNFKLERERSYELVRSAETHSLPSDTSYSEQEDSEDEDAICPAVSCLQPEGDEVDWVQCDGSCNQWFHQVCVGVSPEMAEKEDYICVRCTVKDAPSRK
Protocol: The ability of test compounds to inhibit the activity of Jarid1B was determined in 384-well plate format under the following reaction conditions: 0.8 nM Jarid1B, 300 nM H3K4me3-biotin labeled peptide (Anaspec cat #64357), 2 μM alpha-ketoglutaric acid in assay buffer of 50 mM HEPES, pH7.3, 0.005% Brij35, 0.5 mM TCEP, 0.2 mg/ml BSA, 50 μM sodium L-ascorbate, and 2 μM ammonium iron(II) sulfate. Reaction product was determined quantitatively by TR-FRET after the addition of detection reagent Phycolink Streptavidin-allophycocyanin (Prozyme) and Europium-anti-H3K4me or -H3K4me2 antibody (PerkinElmer) in the presence of 5 mM EDTA in LANCE detection buffer (PerkinElmer) at a final concentration of 25 nM and 1 nM, respectively.
as §1, with “nM H3K4me3-biotin” for “nM H3K9me3-biotin”, “DMSO was” for “DMSO were”, “of 2.4” for “of 0.9”, “nM Jarid1B” for “nM JMJD2C”, “containing 50” for “containing 100”, “nM Europium-anti-H3K4me/H3K4me2” for “nM Europium-anti-H3K9me2”

[4] = target: JMJD3 (Homo sapiens, UniProt O15054); assay: In vitro enzyme inhibition assay for JMJD3 activity (TR-FRET); type: biochemical; details: Table 5; one class given per A and B pair
Protocol: This assay determines the ability of a test compound to inhibit JMJD3 demethylase activity. Baculovirus expressed JMJD3 (GenBank Accession #NM-001080424, AA1043-end) was purchased from BPS Bioscience (Cat#50115).
The enzymatic assay of JMJD3 activity is based upon Time Resolved-Fluorescence Resonance Energy Transfer (TR-FRET) detection. The ability of test compounds to inhibit the activity of JMJD3 was determined in 384-well plate format under the following reaction conditions: 5 nM JMJD3, 250 nM H3K27me3-biotin labeled peptide (Anaspec cat #64367), 0.4 to 2 μM α-ketoglutaric acid in assay buffer of 50 mM HEPES, pH7.3, 0.005% Brij35, 0.5 mM TCEP, 0.2 mg/ml BSA, 50 μM sodium L-ascorbate, and 5 μM ammonium iron(II) sulfate. Reaction product was determined quantitatively by TR-FRET after the addition of detection reagent Phycolink Streptavidin-allophycocyanin (Prozyme) and Europium-anti-H3K27me2 antibody (PerkinElmer) in the presence of 5 mM EDTA in LANCE detection buffer (PerkinElmer) at a final concentration of 50 nM and 1 nM, respectively.
The assay reaction was initiated by the following: […] of the mixture of 750 nM H3K27me3-biotin labeled peptide and 1.2 to 6 μM alpha-ketoglutaric acid with 2 μL of 11-point serial diluted inhibitor in 3% DMSO were added to each well of plate, followed by the addition of 2 μl of 15 nM JMJD3 to initiate the reaction. The reaction mixture was incubated at RT for 30 min, and terminated by the addition of 6 μL of 5 mM EDTA in LANCE detection buffer containing 100 nM Phycolink Streptavidin-allophycocyanin and 2 nM Europium-anti-H3K27me2 antibody. Plates were read by EnVisionMultilabel Reader in TR-FRET mode (excitation at 320 nm, emission at 615 nm and 665 nm) after 1 hr incubation at RT. A ratio from the readout of 665/615 was calculated for each well and fitted to determine inhibition constant (IC50).

Sequence of JMJD2C (Q9H3R0 2-372): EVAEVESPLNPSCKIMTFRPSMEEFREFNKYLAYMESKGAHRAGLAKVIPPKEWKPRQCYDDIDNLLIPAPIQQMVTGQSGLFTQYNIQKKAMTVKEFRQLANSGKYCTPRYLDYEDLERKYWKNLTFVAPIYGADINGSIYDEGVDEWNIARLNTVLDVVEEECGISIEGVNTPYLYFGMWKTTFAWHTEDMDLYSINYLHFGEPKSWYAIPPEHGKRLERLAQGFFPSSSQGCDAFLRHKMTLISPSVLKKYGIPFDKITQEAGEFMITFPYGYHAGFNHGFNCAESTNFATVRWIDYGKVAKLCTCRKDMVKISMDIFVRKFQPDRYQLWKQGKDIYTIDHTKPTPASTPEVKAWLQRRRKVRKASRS

| SMILES | IC50 [1] | IC50 [2] | IC50 [3] | IC50 [4] |
| --- | --- | --- | --- | --- |
| Cc1ccccc1-c1ccc2c(c1)CCN[C@H]2CNc1cnccc1C(=O)O [Example 8A, (R)-3-(((6-(o-tolyl)-1,2,3,4-tetrahydroisoquinolin-1-yl)methyl)amino)isonicotinic Acid] | 1000 to 10000 nM | 100 to 1000 nM | ≤ 100 nM | 1000 to 10000 nM |
| Cc1ccccc1-c1ccc2c(c1)CCN[C@@H]2CNc1cnccc1C(=O)O [Example 8B, (S)-3-(((6-(o-tolyl)-1,2,3,4-tetrahydroisoquinolin-1-yl)methyl)amino) isonicotinic Acid] | 1000 to 10000 nM | 100 to 1000 nM | ≤ 100 nM | 1000 to 10000 nM |
| CCc1ccccc1-c1ccc2c(c1)CCN[C@H]2CNc1cnccc1C(=O)O [Example 9A, (R)-3-(((6-(2-ethylphenyl)-1,2,3,4-tetrahydroisoquinolin-1-yl)methyl)amino)isonicotinic Acid] | 1000 to 10000 nM | 100 to 1000 nM | ≤ 100 nM | 1000 to 10000 nM |
| CCc1ccccc1-c1ccc2c(c1)CCN[C@@H]2CNc1cnccc1C(=O)O [Example 9B, (S)-3-(((6-(2-ethylphenyl)-1,2,3,4-tetrahydroisoquinolin-1-yl)methyl)amino)isonicotinic Acid] | 1000 to 10000 nM | 100 to 1000 nM | ≤ 100 nM | 1000 to 10000 nM |
| Cc1ccc(N(C)c2ccc3c(c2)CCN(C)[C@H]3CNc2cnccc2C(=O)O)cc1 [Example 11A, (R)-3-(((2-methyl-6-(methyl(p-tolyl)amino)-1,2,3,4-tetrahydroisoquinolin-1-yl)methyl)amino)isonicotinic acid] | 100 to 1000 nM | ≤ 100 nM | ≤ 100 nM | 1000 to 10000 nM |
| Cc1ccccc1-c1ccc2c(c1)CCN(C)[C@H]2CNc1cnccc1C(=O)O [Example 12A, (R)-3-(((2-methyl-6-(o-tolyl)-1,2,3,4-tetrahydroisoquinolin-1-yl)methyl)amino)isonicotinic acid] | 1000 to 10000 nM | ≤ 100 nM | ≤ 100 nM | 1000 to 10000 nM |
| Cc1ccccc1-c1ccc2c(c1)CCN(C)[C@@H]2CNc1cnccc1C(=O)O [Example 12B, (S)-3-(((2-methyl-6-(o-tolyl)-1,2,3,4-tetrahydroisoquinolin-1-yl)methyl)amino)isonicotinic acid] | 1000 to 10000 nM | ≤ 100 nM | ≤ 100 nM | 1000 to 10000 nM |

More lines, now with the values ahead:

| IC50 [1] | IC50 [2] | IC50 [3] | IC50 [4] | SMILES |
| --- | --- | --- | --- | --- |
| 1000 to 10000 nM | 100 to 1000 nM | ≤ 100 nM | 1000 to 10000 nM | CCc1ccc(N(C)c2ccc3c(c2)CCN[C@H]3CNc2cnccc2C(=O)O)cc1 [Example 10A, (R)-3-(((6-((4-ethylphenyl)(methyl)amino)-1,2,3,4-tetrahydroisoquinolin-1-yl)methyl)amino)isonicotinic acid] |
| 1000 to 10000 nM | 100 to 1000 nM | ≤ 100 nM | 1000 to 10000 nM | CCc1ccc(N(C)c2ccc3c(c2)CCN[C@@H]3CNc2cnccc2C(=O)O)cc1 [Example 10B, (S)-3-(((6-((4-ethylphenyl)(methyl)amino)-1,2,3,4-tetrahydroisoquinolin-1-yl)methyl)amino)isonicotinic acid] |
| 100 to 1000 nM | ≤ 100 nM | ≤ 100 nM | 1000 to 10000 nM | Cc1ccc(N(C)c2ccc3c(c2)CCN(C)[C@@H]3CNc2cnccc2C(=O)O)cc1 [Example 11B, (S)-3-(((2-methyl-6-(methyl(p-tolyl)amino)-1,2,3,4-tetrahydroisoquinolin-1-yl)methyl)amino)isonicotinic acid] |
| 100 to 1000 nM | ≤ 100 nM | ≤ 100 nM | 1000 to 10000 nM | CCc1ccc(N(C)c2ccc3c(c2)CCN(C)[C@H]3CNc2cnccc2C(=O)O)cc1 [Example 13A, (R)-3-(((6-((4-ethylphenyl)(methyl)amino)-2-methyl-1,2,3,4-tetrahydro-isoquinolin-1-yl)methyl)amino)isonicotinic acid] |
